Experimental data published in ChEMBL document CHEMBL6071160, “Identification of a novel 10-hydroxyevodiamine prodrug as a potent topoisomerase inhibitor with improved aqueous solubility for treatment of hepatocellular carcinoma” (Eur J Med Chem, 2024).
pIC50: −log10 of the molar value. Values after ≈ are worked out from the molar mass of the structure shown.

What was measured:
[1] = Aqueous solubility of the compound […] measured after 72 hrs in shaking by HPLC analysis; assay type: physicochemical
Huh-7 [2] = experiment: Antiproliferative activity against human Huh-7 cells assessed as inhibition of cell proliferation incubated for 72 hrs by MTT assay; assay type: functional, cell-based; details: Huh-7, 72 h
SK-HEP1 [3] = experiment: Antiproliferative activity against human SK-HEP1 cells assessed as inhibition of cell proliferation incubated for 72 hrs by MTT assay; assay type: functional, cell-based; details: SK-HEP1, 72 h
HepG2 = experiment: Antiproliferative activity against human HepG2 cells assessed as inhibition of cell proliferation incubated for 72 hrs by MTT assay; assay type: functional, cell-based; details: HepG2, 72 h
SMMC-7721 = experiment: Antiproliferative activity against human SMMC-7721 cells assessed as inhibition of cell proliferation incubated for 72 hrs by MTT assay; assay type: functional, cell-based; details: SMMC-7721, 72 h
[4] = Antiproliferative activity against human Doxorubicin-resistant SMMC-7721 cell assessed as inhibition of cell proliferation incubated for 72 hrs by MTT assay; assay type: functional, cell-based; details: SMMC-7721, 72 h
[5] = Drug resistance index, ratio of IC50 for antiproliferative activity against human SMMC-7721 cells to antiproliferative activity against human Doxorubicin-resistant SMMC-7721 cells; assay type: functional
SK-HEP1 [6] = experiment: Induction of apoptosis in human SK-HEP1 cells assessed as ROS generation by measuring DCFH2-DA stained cells at 80 nM measured after 24 hrs […] (reference value: 0.14%); assay type: functional
SK-HEP1 [7] = experiment: Induction of cell cycle arrest in human SK-HEP1 cells assessed as accumulation of cells at G2 phase 80 nM measured after 24 hrs by flow cytometric assay (reference value: 22.41%); assay type: functional
Huh-7 [8] = experiment: Induction of apoptosis in human Huh-7 cells assessed as ROS generation by measuring DCFH2-DA stained cells at 80 nM measured after 24 hrs […] (reference value: 0.45%); assay type: functional
SK-HEP1 [9] = experiment: Induction of apoptosis in human SK-HEP1 cells assessed as late apoptotic cells at 80 nM measured after 24 hrs by Annexin-V-FITC/PI analysis (reference value: 0.64%); assay type: functional
SK-HEP1 [10] = experiment: Induction of cell cycle arrest in human SK-HEP1 cells assessed as accumulation of cells at S phase 80 nM measured after 24 hrs by flow cytometric assay (reference value: 30.04%); assay type: functional
Huh-7 [11] = experiment: Induction of apoptosis in human Huh-7 cells assessed as late apoptotic cells at 80 nM measured after 24 hrs by Annexin-V-FITC/PI analysis (reference value: 1.23%); assay type: functional
SK-HEP1 [12] = experiment: Induction of cell cycle arrest in human SK-HEP1 cells assessed as accumulation of cells at G1 phase 80 nM measured after 24 hrs by flow cytometric assay (reference value: 47.55%); assay type: functional
Huh-7 [13] = experiment: Induction of cell cycle arrest in human Huh-7 cells assessed as accumulation of cells at G1 phase 80 nM measured after 24 hrs by flow cytometric assay (reference value: 63.01%); assay type: functional
SK-HEP1 [14] = experiment: Induction of apoptosis in human SK-HEP1 cells assessed as necrotic cells at 80 nM measured after 24 hrs by Annexin-V-FITC/PI analysis (reference value: 0.70%); assay type: functional
Huh-7 [15] = experiment: Induction of apoptosis in human Huh-7 cells assessed as loss of mitochondrial membrane potential by measuring JC-1 stained cells at 80 nM measured after 24 hrs by JC-1 staining based flow cytometry (reference value: 2.27%); assay type: functional
SK-HEP1 [16] = experiment: Induction of apoptosis in human SK-HEP1 cells assessed as early apoptotic cells at 80 nM measured after 24 hrs by Annexin-V-FITC/PI analysis (reference value: 1.45%); assay type: functional
Huh-7 [17] = experiment: Induction of cell cycle arrest in human Huh-7 cells assessed as accumulation of cells at G2 phase 80 nM measured after 24 hrs by flow cytometric assay (reference value: 13.66%); assay type: functional
Huh-7 [18] = experiment: Induction of cell cycle arrest in human Huh-7 cells assessed as accumulation of cells at S phase 80 nM measured after 24 hrs by flow cytometric assay (reference value: 23.33%); assay type: functional
Huh-7 [19] = experiment: Induction of apoptosis in human Huh-7 cells assessed as necrotic cells at 80 nM measured after 24 hrs by Annexin-V-FITC/PI analysis (reference value: 0.27%); assay type: functional
Huh-7 [20] = experiment: Induction of apoptosis in human Huh-7 cells assessed as early apoptotic cells at 80 nM measured after 24 hrs by Annexin-V-FITC/PI analysis (reference value: 1.04%); assay type: functional
SK-HEP1 [21] = experiment: Induction of apoptosis in human SK-HEP1 cells assessed as viable cells at 80 nM measured after 24 hrs by Annexin-V-FITC/PI analysis (reference value: 97.20%); assay type: functional; details: read-out: Activity
Huh-7 [22] = experiment: Induction of apoptosis in human Huh-7 cells assessed as viable cells at 80 nM measured after 24 hrs by Annexin-V-FITC/PI analysis (reference value: 97.46%); assay type: functional; details: read-out: Activity
SK-HEP1 [23] = experiment: Induction of apoptosis in human SK-HEP1 cells assessed as loss of mitochondrial membrane potential by measuring JC-1 stained cells at 80 nM measured after 24 hrs by JC-1 staining based flow cytometry (reference value: 0.49%); assay type: functional

SMILES	solubility thermodynamic at 72 h [1]	pIC50 (Huh-7 [2])	pIC50 (SK-HEP1 [3])	pIC50 (HepG2)	further results
CN(C)CCC(=O)Oc1ccc2[nH]c3c(c2c1)CCN1C(=O)c2cc(F)cc(F)c2N(c2cccc(F)c2)C31 (stereo not drawn)	11.8 µg/mL (≈ 22.1 µM)	7.40	7.40	7.40	–
CN(C)CC(=O)Oc1ccc2[nH]c3c(c2c1)CCN1C(=O)c2cc(F)cc(F)c2N(c2cccc(F)c2)C31 (stereo not drawn)	8.7 µg/mL (≈ 16.7 µM)	7.40	7.52	7.00	–
O=C(Oc1ccc2[nH]c3c(c2c1)CCN1C(=O)c2cc(F)cc(F)c2N(c2cccc(F)c2)C31)N1CCNCC1 (stereo not drawn)	1.5 µg/mL (≈ 2.74 µM)	< 5.79	< 5.79	< 5.79	–
CC(O)COc1ccc2[nH]c3c(c2c1)CCN1C(=O)c2cc(F)cc(F)c2N(c2cccc(F)c2)C31 (stereo not drawn)	12.2 µg/mL (≈ 24.7 µM)	6.72	6.14	6.29	–
O=C(O)CCC(=O)Oc1ccc2[nH]c3c(c2c1)CCN1C(=O)c2cc(F)cc(F)c2N(c2cccc(F)c2)C31 (stereo not drawn)	6.1 µg/mL (≈ 11.4 µM)	7.70	7.05	7.15	–
CC(C)(O)COc1ccc2[nH]c3c(c2c1)CCN1C(=O)c2cc(F)cc(F)c2N(c2cccc(F)c2)C31 (stereo not drawn)	2.5 µg/mL (≈ 4.93 µM)	6.28	6.04	5.91	–
CNC(=O)c1cc(Oc2ccc(NC(=O)Nc3ccc(Cl)c(C(F)(F)F)c3)cc2)ccn1 [SORAFENIB]	–	–	–	–	pIC50 (SMMC-7721): 5.46; pIC50 [4]: 5.29
CC[C@@]1(O)C(=O)OCc2c1cc1n(c2=O)Cc2cc3c(CN(C)C)c(O)ccc3nc2-1 [TOPOTECAN]	–	5.43	5.82	5.98	–
O=C(Oc1ccc2[nH]c3c(c2c1)CCN1C(=O)c2cc(F)cc(F)c2N(c2cccc(F)c2)C31)N1CCC(N2CCCCC2)CC1 (stereo not drawn)	34.5 µg/mL (≈ 54.8 µM)	< 5.79	< 5.79	< 5.79	–
CCN(CC)C(=O)Oc1ccc2[nH]c3c(c2c1)CCN1C(=O)c2cc(F)cc(F)c2N(c2cccc(F)c2)C31 (stereo not drawn)	5.5 µg/mL (≈ 10.3 µM)	< 5.79	< 5.79	< 5.79	–
O=C(O)COc1ccc2[nH]c3c(c2c1)CCN1C(=O)c2cc(F)cc(F)c2N(c2cccc(F)c2)C31 (stereo not drawn)	72.5 µg/mL (≈ 147 µM)	< 5.79	< 5.79	< 5.79	–
COP(=O)(OC)Oc1ccc2[nH]c3c(c2c1)CCN1C(=O)c2cc(F)cc(F)c2N(c2cccc(F)c2)C31 (stereo not drawn)	1.9 µg/mL (≈ 3.5 µM)	< 5.79	< 5.79	< 5.79	–
O=C(CO)Oc1ccc2[nH]c3c(c2c1)CCN1C(=O)c2cc(F)cc(F)c2N(c2cccc(F)c2)C31 (stereo not drawn)	0.7 µg/mL (≈ 1.42 µM)	7.15	7.40	6.74	–
COc1cccc2c1C(=O)c1c(O)c3c(c(O)c1C2=O)C[C@@](O)(C(=O)CO)C[C@@H]3O[C@H]1C[C@H](N)[C@H](O)[C@H](C)O1 [DOXORUBICIN]	–	–	–	–	pIC50 (SMMC-7721): 6.82; pIC50 [4]: 5.87; Ratio [5]: 9
COCC(=O)Oc1ccc2[nH]c3c(c2c1)CCN1C(=O)c2cc(F)cc(F)c2N(c2cccc(F)c2)C31 (stereo not drawn)	3 µg/mL (≈ 5.91 µM)	7.40	7.40	7.05	–
CN(C)CCOc1ccc2[nH]c3c(c2c1)CCN1C(=O)c2cc(F)cc(F)c2N(c2cccc(F)c2)C31 (stereo not drawn)	53 µg/mL (≈ 105 µM)	6.37	5.86	6.10	–
O=C1c2cc(F)cc(F)c2N(c2cccc(F)c2)C2c3[nH]c4ccc(O)cc4c3CCN12 (stereo not drawn)	1 µg/mL (≈ 2.3 µM)	7.30	–	–	Activity (SK-HEP1 [6]): 61.44%; Activity (SK-HEP1 [7]): 66.31%; Activity (Huh-7 [8]): 31.15%; Activity (SK-HEP1 [9]): 10.49%; Activity (SK-HEP1 [10]): 25.51%; Activity (Huh-7 [11]): 10.46%; Activity (SK-HEP1 [12]): 8.18%; Activity (Huh-7 [13]): 5.79%; Activity (SK-HEP1 [14]): 1.19%; Activity (Huh-7 [15]): 10.62%; Activity (SK-HEP1 [16]): 22.1%; Activity (Huh-7 [17]): 86.71%; Activity (Huh-7 [18]): 7.51%; Activity (Huh-7 [19]): 1.63%; Activity (Huh-7 [20]): 6.84%; viability at 0.08 µM (SK-HEP1 [21]): 66.2%; viability at 0.08 µM (Huh-7 [22]): 81.1%; Activity (SK-HEP1 [23]): 10.75%
CN(C)C(=O)Oc1ccc2[nH]c3c(c2c1)CCN1C(=O)c2cc(F)cc(F)c2N(c2cccc(F)c2)C31 (stereo not drawn)	3.1 µg/mL (≈ 6.12 µM)	< 5.79	< 5.79	< 5.79	–

The next lines start with results.

solubility thermodynamic at 72 h [1]	pIC50 (Huh-7 [2])	pIC50 (SK-HEP1 [3])	pIC50 (HepG2)	SMILES	further results
34.3 µg/mL (≈ 62.8 µM)	< 5.79	< 5.79	< 5.79	O=C1c2cc(F)cc(F)c2N(c2cccc(F)c2)C2c3[nH]c4ccc(OCCN5CCCCC5)cc4c3CCN12 (stereo not drawn)	–
10.1 µg/mL (≈ 18 µM)	7.40	7.52	7.10	O=C(CCN1CCCC1)Oc1ccc2[nH]c3c(c2c1)CCN1C(=O)c2cc(F)cc(F)c2N(c2cccc(F)c2)C31 (stereo not drawn)	–
9.5 µg/mL (≈ 19.8 µM)	6.92	6.70	6.55	O=C1c2cc(F)cc(F)c2N(c2cccc(F)c2)C2c3[nH]c4ccc(OCCO)cc4c3CCN12 (stereo not drawn)	–
61.1 µg/mL (≈ 112 µM)	< 5.79	< 5.79	< 5.79	O=C1c2cc(F)cc(F)c2N(c2cccc(F)c2)C2c3[nH]c4ccc(OCCCN5CCCC5)cc4c3CCN12 (stereo not drawn)	–
1.3 µg/mL (≈ 2.63 µM)	5.82	5.80	5.89	COCCOc1ccc2[nH]c3c(c2c1)CCN1C(=O)c2cc(F)cc(F)c2N(c2cccc(F)c2)C31 (stereo not drawn)	–
71.4 µg/mL (≈ 141 µM)	< 5.79	< 5.79	< 5.79	COCCCOc1ccc2[nH]c3c(c2c1)CCN1C(=O)c2cc(F)cc(F)c2N(c2cccc(F)c2)C31 (stereo not drawn)	–
50.5 µg/mL (≈ 92.2 µM)	< 5.79	< 5.79	< 5.79	O=C1c2cc(F)cc(F)c2N(c2cccc(F)c2)C2c3[nH]c4ccc(OCCN5CCNCC5)cc4c3CCN12 (stereo not drawn)	–
100 µg/mL (≈ 179 µM)	< 5.79	< 5.79	< 5.79	O=C1c2cc(F)cc(F)c2N(c2cccc(F)c2)C2c3[nH]c4ccc(OCCCN5CCCCC5)cc4c3CCN12 (stereo not drawn)	–
9.5 µg/mL (≈ 17.3 µM)	< 5.79	< 5.79	< 5.79	O=C1c2cc(F)cc(F)c2N(c2cccc(F)c2)C2c3[nH]c4ccc(OCCN5CCOCC5)cc4c3CCN12 (stereo not drawn)	–
103 µg/mL (≈ 183 µM)	< 5.79	< 5.79	< 5.79	CN1CCN(CCOc2ccc3[nH]c4c(c3c2)CCN2C(=O)c3cc(F)cc(F)c3N(c3cccc(F)c3)C42)CC1 (stereo not drawn)	–
11.6 µg/mL (≈ 20.6 µM)	< 5.79	< 5.79	< 5.79	O=C1c2cc(F)cc(F)c2N(c2cccc(F)c2)C2c3[nH]c4ccc(OCCCN5CCOCC5)cc4c3CCN12 (stereo not drawn)	–
